Common to all, as to format: functional
Assay [1] has as its system Mus musculus. The assay can be described thus: Anti-inflammatory activity in Mus musculus Kunming (mouse) assessed as inhibition of xylene-induced ear edema at 200 mg/kg, po administered 2 hr prior to xylene challenge measured at 2 hr post xylene challenge relative to control.
In assay [2] the test system is Mus musculus. The assay can be described thus: Anti-inflammatory activity in Mus musculus Kunming (mouse) assessed as inhibition of xylene-induced ear edema at 200 mg/kg, po administered 3 hr prior to xylene challenge measured at 3 hr post xylene challenge relative to control.
Assay [3] concerns Mus musculus. The assay can be described thus: Anti-inflammatory activity in Mus musculus Kunming (mouse) assessed as inhibition of xylene-induced ear edema at 200 mg/kg, po administered 4 hr prior to xylene challenge measured at 4 hr post xylene challenge relative to control.
In assay [4] the test system is Mus musculus. The assay can be described thus: Anti-inflammatory activity in Mus musculus Kunming (mouse) assessed as inhibition of xylene-induced ear edema at 50 mg/kg, po administered 2 hr prior to xylene challenge measured at 2 hr post xylene challenge relative to control.
The subject of assay [5] is Mus musculus. The assay can be described thus: Anti-inflammatory activity in Mus musculus Kunming (mouse) assessed as inhibition of xylene-induced ear edema at 200 mg/kg, po administered 1 hr prior to xylene challenge measured at 1 hr post xylene challenge relative to control.
Assay [6] deals with Mus musculus. The assay can be described thus: Anti-inflammatory activity in Mus musculus Kunming (mouse) assessed as inhibition of xylene-induced ear edema at 100 mg/kg, po administered 2 hr prior to xylene challenge measured at 2 hr post xylene challenge relative to control.
The subject of assay [7] is Mus musculus. The assay can be described thus: Anti-inflammatory activity in Mus musculus Kunming (mouse) assessed as inhibition of xylene-induced ear edema at 200 mg/kg, po administered 0.5 hr prior to xylene challenge measured at 0.5 hr post xylene challenge relative to control.
The test system of assay [8] is Mus musculus. The assay can be described thus: Anti-inflammatory activity in Mus musculus Kunming (mouse) assessed as inhibition of xylene-induced ear edema at 200 mg/kg, po administered 24 hr prior to xylene challenge measured at 24 hr post xylene challenge relative to control.

Activity calls are given as the source filed them. The calls are words filed in the database; no cut-off is given here.

In the case of `Cc1ccc(/C=C/C(=O)c2ccc(O)cc2O)cc1`, in the assay with Mus musculus [1], the inhibition result is “inactive”.
For orientation: inhibition in vivo means how much of the control response was suppressed. Regarding `COc1ccc(/C=C/C(=O)c2ccc(O)cc2O)cc1`, the inhibition in vivo at 200 mg/kg in the assay on Mus musculus [1] came to 51.4%.
Still for that read-out and setting: in the case of `O=C(/C=C/c1ccccc1[N+](=O)[O-])c1ccc(O)cc1O` it was 20.2%; in that of `COc1cc(/C=C/C(=O)c2ccc(O)cc2O)ccc1O` [HOMOBUTEIN], 25.2%.
As to `CN(C)c1ccc(/C=C/C(=O)c2ccc(O)cc2O)cc1`, the inhibition in vivo at 200 mg/kg was determined as 27.5% in the assay with Mus musculus [2]; 25.3% in the assay with Mus musculus [3]; 62.5% in the assay with Mus musculus [1]; 45.8% in the assay with Mus musculus [5]; 41.7% in the assay with Mus musculus [7]; 21.2% in the assay with Mus musculus [8]. In addition, in the assay on Mus musculus [4], the inhibition in vivo at 50 mg/kg was determined as 15.1%. Moreover, in the assay on Mus musculus [6], the inhibition in vivo at 100 mg/kg is 32.9%.
On to `O=C(/C=C/c1ccc(O)cc1)c1ccc(O)cc1O` [ISOLIQUIRITIGENIN], for which, in the assay on Mus musculus [1], the inhibition in vivo at 200 mg/kg was determined as 14.9%.
Still for that read-out and setting: in the case of `O=C(/C=C/c1ccc(O)c(O)c1)c1ccc(O)cc1O` [BUTEIN] it was 14.4%.
Same read-out and setting: in the case of `O=C(/C=C/c1ccc(Cl)cc1Cl)c1ccc(O)cc1O` it was 26%; in that of `CN(C)c1ccc(/C=C/C(=O)c2ccc(O)cc2)cc1`, 17.3%.
Take `O=C(/C=C/c1ccc(Cl)cc1)c1ccc(O)cc1O`: the inhibition in vivo at 200 mg/kg in the assay on Mus musculus [2] was found to be 33.6%; in the assay with Mus musculus [3], 32.3%; in the assay with Mus musculus [1], 68.2%; in the assay on Mus musculus [5], 32.5%; in the assay with Mus musculus [7], 30.2%; in the assay with Mus musculus [8] it was 21.5%. In addition, the inhibition in vivo at 50 mg/kg in the assay with Mus musculus [4] was determined as 18.6%. For the same compound, the inhibition in vivo at 100 mg/kg with Mus musculus [6] amounted to 49%.
With `O=C(/C=C/c1cccc([N+](=O)[O-])c1)c1ccc(O)cc1O`, the inhibition in vivo at 200 mg/kg in the assay with Mus musculus [1] came out at 30%.
On the same count and under the same terms, with `COc1cc(/C=C/C(=O)c2ccc(O)cc2)ccc1O` the figure was 7.83%; with `O=C(/C=C/c1ccc2c(c1)OCO2)c1ccc(O)cc1O`, 22%; with `O=C(/C=C/c1ccc(O)cc1)c1ccc(O)cc1` [4,4'-DIHYDROXYCHALCONE], 5.42%.
For the compound `CC(C)Cc1ccc(C(C)C(=O)O)cc1` (stereo unspecified) [IBUPROFEN], the inhibition in vivo at 200 mg/kg in the assay on Mus musculus [2] came out at 34.5%; in the assay on Mus musculus [3], 30.1%; in the assay with Mus musculus [1], 53.5%; in the assay on Mus musculus [5], 41.6%; in the assay with Mus musculus [7], 32.5%; in the assay with Mus musculus [8], 20.6%. The inhibition in vivo at 50 mg/kg in the assay with Mus musculus [4] worked out at 19.8%. In addition, the inhibition in vivo at 100 mg/kg in the assay on Mus musculus [6] was found to be 33%.
